Active and inactive are the calls of the source. How the calls were made is not given here.
System: rodent carcinogenicity bioassays, tumor incidence
Assay: CCRIS carcinogenicity studies
In short: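 NCI-built, expert-reviewed records of carcinogenicity and related test outcomes (mutagenicity, tumor promotion/inhibition) compiled from published and report sources, historical span 1985-2011, not updated.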

## N#CS
Species: RAT, Strain/Sex: F344/FEMALE, Route: ORAL, Dose: 0, 0.32% IN DRINKING WATER 5 D/WK FOR 112 WK (STUDY DURATION: 130 WK)
  carcinogen call: inactive; negative
Species: RAT, Strain/Sex: F344/MALE, Route: ORAL, Dose: 0, 0.32% IN DRINKING WATER 5 D/WK FOR 112 WK (STUDY DURATION: 130 WK)
  carcinogen call: inactive; negative

## CCCc1ccc2c(c1)OCO2
Species: MOUSE, Route: ORAL, Tumor Site: Type of Lesion: LIVER, LUNG
  carcinogen call: active; positive
Species: RAT, Route: ORAL, Tumor Site: Type of Lesion: ESOPHAGUS
  carcinogen call: active; positive

## CCNN
Species: MOUSE, Strain/Sex: SWISS/FEMALE, Route: ORAL, Dose: 0, 0.0125% IN DRINKING WATER FOR LIFE FOR AN AVERAGE DAILY DOSE OF 0, 0.92 MG (STUDY DURATION: 130 WK), Dose: 0, 0.0125% IN DRINKING WATER FOR LIFE FOR AN AVERAGE DAILY DOSE OF 0, 0.92 MG (STUDY DURATION: 130 WK), Tumor Site: Type of Lesion: LUNG: ADENOMA OR ADENOCARCINOMA, BLOOD VESSEL: ANGIOSARCOMA OR ANGIOMA
  carcinogen call: active; positive
Species: MOUSE, Strain/Sex: SWISS/MALE, Route: ORAL, Dose: 0, 0.0125% IN DRINKING WATER FOR LIFE FOR AN AVERAGE DAILY DOSE OF 0, 1.52 MG (STUDY DURATION: 130 WK), Dose: 0, 0.0125% IN DRINKING WATER FOR LIFE FOR AN AVERAGE DAILY DOSE OF 0, 1.52 MG (STUDY DURATION: 130 WK), Tumor Site: Type of Lesion: LUNG: ADENOMA OR ADENOCARCINOMA, BLOOD VESSEL: ANGIOSARCOMA OR ANGIOMA
  carcinogen call: active; positive

## Nc1ccn([C@@H]2O[C@H](CO)[C@@H](O)C2O)c(=O)n1 (stereo partly drawn)
Species: RAT, Strain/Sex: SPRAGUE-DAWLEY/FEMALE, Route: INTRAPERITONEAL, Dose: 0, 5, 25 MG/KG IN PHYSIOLOGICAL SALINE 5/WK FOR 72 WK (STUDY DURATION: LIFETIME), Dose: 0, 5, 25 MG/KG IN PHYSIOLOGICAL SALINE 5/WK FOR 72 WK (STUDY DURATION: LIFETIME)
  carcinogen call: inactive; negative
Species: RAT, Strain/Sex: SPRAGUE-DAWLEY/FEMALE, Route: INTRAPERITONEAL, Dose: 0, 500, 1500 MG/KG IN PHYSIOLOGICAL SALINE ON D 1, 3, 5 WITHIN 3 MO, CYCLE REPEATED 6 TIMES (STUDY DURATION: LIFETIME), Dose: 0, 500, 1500 MG/KG IN PHYSIOLOGICAL SALINE ON D 1, 3, 5 WITHIN 3 MO, CYCLE REPEATED 6 TIMES (STUDY DURATION: LIFETIME)
  carcinogen call: inactive; negative
Species: RAT, Strain/Sex: SPRAGUE-DAWLEY/MALE, Route: INTRAPERITONEAL, Dose: 0, 5, 25 MG/KG IN PHYSIOLOGICAL SALINE 5/WK FOR 72 WK (STUDY DURATION: LIFETIME), Dose: 0, 5, 25 MG/KG IN PHYSIOLOGICAL SALINE 5/WK FOR 72 WK (STUDY DURATION: LIFETIME)
  carcinogen call: inactive; negative
Species: RAT, Strain/Sex: SPRAGUE-DAWLEY/MALE, Route: INTRAPERITONEAL, Dose: 0, 500, 1500 MG/KG IN PHYSIOLOGICAL SALINE ON D 1, 3, 5 WITHIN 3 MO, CYCLE REPEATED 6 TIMES (STUDY DURATION: LIFETIME), Dose: 0, 500, 1500 MG/KG IN PHYSIOLOGICAL SALINE ON D 1, 3, 5 WITHIN 3 MO, CYCLE REPEATED 6 TIMES (STUDY DURATION: LIFETIME)
  carcinogen call: inactive; negative

## O[C@H]1[C@H]2O[C@H]2c2c(ccc3cc4ccc5ccccc5c4nc23)[C@@H]1O
Species: MOUSE, Strain/Sex: CD-1/FEMALE, Route: INTRAPERITONEAL, Dose: 0, 28 NMOL (TOTAL DOSE) ADMINISTERED AS 1/7 OF DOSE WITHIN 24 HR AFTER BIRTH, 2/7 OF DOSE AT 8 D OLD, 4/7 OF DOSE AT 15
  carcinogen call: inactive; negative
Species: MOUSE, Strain/Sex: CD-1/FEMALE, Route: INTRAPERITONEAL, Dose: 0, 175 NMOL (TOTAL DOSE) ADMINISTERED AS 1/7 OF DOSE WITHIN 24 HR AFTER BIRTH, 2/7 OF DOSE AT 8 D OLD, 4/7 OF DOSE AT 15
  carcinogen call: inactive; negative
Species: MOUSE, Strain/Sex: CD-1/MALE, Route: INTRAPERITONEAL, Dose: 0, 28 NMOL (TOTAL DOSE) ADMINISTERED AS 1/7 OF DOSE WITHIN 24 HR AFTER BIRTH, 2/7 OF DOSE AT 8 D OLD, 4/7 OF DOSE AT 15
  carcinogen call: inactive; negative
Species: MOUSE, Strain/Sex: CD-1/MALE, Route: INTRAPERITONEAL, Dose: 0, 175 NMOL (TOTAL DOSE) ADMINISTERED AS 1/7 OF DOSE WITHIN 24 HR AFTER BIRTH, 2/7 OF DOSE AT 8 D OLD, 4/7 OF DOSE AT 15
  carcinogen call: inactive; negative

## [P]#[Ga]
Species: MOUSE, Strain/Sex: ICR/MALE, Route: INTRAPERITONEAL, Dose: 0, 48, 480 MG/KG AS GALLIUM SUSPENDED IN OLIVE OIL ONCE (STUDY DURATION: 18 MO), Dose: 0, 48, 480 MG/KG AS GALLIUM SUSPENDED IN OLIVE OIL ONCE (STUDY DURATION: 18 MO)
  carcinogen call: inactive; negative
Species: MOUSE, Strain/Sex: ICR/MALE, Route: SUBCUTANEOUS, Dose: 0, 48, 480 MG/KG AS GALLIUM SUSPENDED IN OLIVE OIL ONCE (STUDY DURATION: 18 MO), Dose: 0, 48, 480 MG/KG AS GALLIUM SUSPENDED IN OLIVE OIL ONCE (STUDY DURATION: 18 MO)
  carcinogen call: inactive; negative

## Cc1c(N(C)C)c(=O)n(-c2ccccc2)n1C
Species: MOUSE, Strain/Sex: B6C3F1/FEMALE, Route: ORAL, Dose: 0, 0.04, 0.08% IN DRINKING WATER FOR 100 WK (STUDY DURATION: 104 WK), Dose: 0, 0.04, 0.08% IN DRINKING WATER FOR 100 WK (STUDY DURATION: 104 WK)
  carcinogen call: inactive; negative
Species: MOUSE, Strain/Sex: B6C3F1/MALE, Route: ORAL, Dose: 0, 0.04, 0.08% IN DRINKING WATER FOR 100 WK (STUDY DURATION: 104 WK), Dose: 0, 0.04, 0.08% IN DRINKING WATER FOR 100 WK (STUDY DURATION: 104 WK)
  carcinogen call: inactive; negative

## c1ccc2nc3c(cc2c1)c1c(c2ccccc23)O1
Species: MOUSE, Strain/Sex: SWISS/FEMALE, Route: INTRAPERITONEAL, Dose: 0, 1.05 UMOL GIVEN AS 150 NMOL IN 5 µL DMSO WITHIN 24 HR OF BIRTH, 300 NMOL IN 10 µL DMSO ON D 8 OF LIFE, AND 600 NMOL I, Tumor Site: Type of Lesion: LUNG: ADENOMA
  carcinogen call: active; positive
Species: MOUSE, Strain/Sex: SWISS/MALE, Route: INTRAPERITONEAL, Dose: 0, 1.05 UMOL GIVEN AS 150 NMOL IN 5 µL DMSO WITHIN 24 HR OF BIRTH, 300 NMOL IN 10 µL DMSO ON D 8 OF LIFE, AND 600 NMOL I
  carcinogen call: inactive; negative

## CCCCN(CC)c1c([N+](=O)[O-])cc(C(F)(F)F)cc1[N+](=O)[O-]
Species: Mouse, Strain/Sex: B6C3F1/Female, Route: Oral, Dose: 0, 0.005, 0.03, 0.15% in diet for 2 yrs in 2 replicates of 30 mice/sex/group, Dose: 0, 0.005, 0.03, 0.15% in diet for 2 yrs in 2 replicates of 30 mice/sex/group
  carcinogen call: inactive; negative; slight but not statistically elevated incidence of total neoplastic tu
Species: Mouse, Strain/Sex: B6C3F1/Male, Route: Oral, Dose: 0, 0.005, 0.03, 0.15% in diet for 2 yrs in 2 replicates of 30 mice/sex/group, Dose: 0, 0.005, 0.03, 0.15% in diet for 2 yrs in 2 replicates of 30 mice/sex/group
  carcinogen call: inactive; negative; slight but not statistically elevated incidence of total neoplastic t
Species: Rat, Strain/Sex: CDF (F344)CrlBR/Female (50/sex/group), Route: Oral, Dose: 0, 10, 100, 2500, 5000 ppm (about 0; 0.7; 6.8; 168; 331 mg/kg/day ) in diet for 104 wks, Dose: 0, 10, 100, 2500, 5000 ppm (about 0; 0.7; 6.8; 168; 331 mg/kg/day ) in diet for 104 wks, Tumor Site: Type of Lesion: Thyroid: thyroid follicular adenomas and carcinomas (0/50; 0/50; 1/50; 5/50; 4/50)
  carcinogen call: active; positive; ca dpr judged the study as showing possible adverse effects
Species: Rat, Strain/Sex: CDF (F344)CrlBR/Male (50/sex/group), Route: Oral, Dose: 0, 10, 100, 2500, 5000 ppm (about 0; 0.5; 5.4; 136; 275 mg/kg/day ) in diet for 104 wks, Dose: 0, 10, 100, 2500, 5000 ppm (about 0; 0.5; 5.4; 136; 275 mg/kg/day ) in diet for 104 wks, Tumor Site: Type of Lesion: Thyroid: thyroid follicular adenomas and carcinomas (1/50; 1/50; 7/50; 8/50) Liver: Hepatocellular tumors (primari
  carcinogen call: active; positive; ca dpr judged the study as showing possible adverse effects

## CCN(CC)C(=S)SSC(=S)N(CC)CC
Species: MOUSE, Strain/Sex: B6C3F1/FEMALE, Route: ORAL, Dose: 0, 100, 500 PPM IN DIET, Dose: 0, 100, 500 PPM IN DIET
  carcinogen call: inactive; negative
Species: MOUSE, Strain/Sex: B6C3F1/MALE, Route: ORAL, Dose: 0, 500, 2000 PPM IN DIET, Dose: 0, 500, 2000 PPM IN DIET
  carcinogen call: inactive; negative
Species: RAT, Strain/Sex: F344/FEMALE, Route: ORAL, Dose: 0, 300, 600 PPM IN DIET, Dose: 0, 300, 600 PPM IN DIET
  carcinogen call: inactive; negative
Species: RAT, Strain/Sex: F344/MALE, Route: ORAL, Dose: 0, 300, 600 PPM IN DIET, Dose: 0, 300, 600 PPM IN DIET
  carcinogen call: inactive; negative

— PubChem BioAssay AID1259411 (Chemical Carcinogenesis Research Information System (CCRIS), 2018)
